Measurements from patent US20160367623A1, “AGONISTS OF GUANYLATE CYCLASE USEFUL FOR THE TREATMENT OF GASTROINTESTINAL DISORDERS, INFLAMMATION, CANCER AND OTHER DISORDERS” (priority 2015, published 2016).
Bridge positions count the residues as written; N and C are the ends. Ends that are not written are not given here.

System: patients with chronic idiopathic constipation (CIC)
Assay: Second phase 3 CIC trial: CSBM weekly responders by week
Assay type: in vivo, human
Conditions: MRA
Text: Both trials include a two-week pre-treatment baseline period, a 12-week treatment period, and a two-week post-treatment period. The phase 3 CIC program was designed to support regulatory submission in the U. S.
The primary endpoint for both trials is the proportion of durable overall responders (%), which is the current regulatory endpoint required for U.S. approval in CIC. The FDA has defined a durable overall responder as a patient who fulfills both ≧3 complete spontaneous bowel movements (CSBMs) per week plus an increase of ≧1 CSBM from baseline in the same week, for 9 out of the 12 treatment weeks. In addition, the same patient must be an overall responder for at least 3 of the last 4 treatment weeks in order to be considered a durable overall responder.
Patients were selected using Rome 3 criteria modified for CIC and had (1) fewer than 3 defecations per week, (2) loose stools occurring rarely without laxatives, (3) inadequate criteria for irritable bowel syndrome with constipation (IBS-C), and (4) at least two of the following applied to at least 25% of defecations: (a) straining during evacuation, (b) lumpy or hard stools, (c) sensation of anorectal obstruction or blockage. Rome 3 requires patients to fulfill the criteria for the last 3 months with symptom onset at least 6 months prior to diagnosis.

[1] = Week 9, Active Combined, ITT Population-Excluding Duplicate Patients
[2] = Week 9, Active Combined, ITT Population
[3] = Week 10, 3 mg, ITT Population-Excluding Duplicate Patients
[4] = Week 10, 6 mg, ITT Population-Excluding Duplicate Patients
[5] = Week 10, Active Combined, ITT Population-Excluding Duplicate Patients
[6] = Week 10, Active Combined, ITT Population
[7] = Week 11, 3 mg, All Randomized (includes Duplicate Patients)
[8] = Week 11, 3 mg, ITT Population-Excluding Duplicate Patients
[9] = Week 11, 6 mg, All Randomized (includes Duplicate Patients)
[10] = Week 11, 6 mg, ITT Population-Excluding Duplicate Patients
[11] = Week 11, Active Combined, All Randomized (includes Duplicate Patients)
[12] = Week 11, Active Combined, ITT Population-Excluding Duplicate Patients
[13] = Week 11, Active Combined, ITT Population
[14] = Week 12, 3 mg, All Randomized (includes Duplicate Patients)
[15] = Week 12, 3 mg, ITT Population-Excluding Duplicate Patients
[16] = Week 12, 6 mg, All Randomized (includes Duplicate Patients)
[17] = Week 12, 6 mg, ITT Population-Excluding Duplicate Patients
[18] = Week 12, Active Combined, All Randomized (includes Duplicate Patients)
[19] = Week 12, Active Combined, ITT Population-Excluding Duplicate Patients
[20] = Week 12, Active Combined, ITT Population

Asn^1-Asp^2-Glu^3-Cys^4-Glu^5-Leu^6-Cys^7-Val^8-Asn^9-Val^10-Ala^11-Cys^12-Thr^13-Gly^14-Cys^15-Leu^16 (NDECELCVNVACTGCL; disulfide 4-12, 7-15) [Plecanatide, uroguanylin analogue, guanylate cyclase-C agonist; (C4:C12, C7:C15) bicycle peptide]
Odds Ratio (adjusted) (Week 9, 6 mg vs placebo, ITT Population): 0.727 | CSBM Weekly Responders, n (%) [1]: 286 (32.6) n (%) | Non-Responders, n (%) [1]: 591 (67.4) n (%) | CSBM Weekly Responders, n (%) [2]: 288 (32.3) n (%) | Non-Responders, n (%) [2]: 604 (67.7) n (%) | Difference in Proportions (adjusted) (Week 10, 3 mg minus placebo, All Randomized (includes Duplicate Patients)): 0.067 | Odds Ratio (adjusted) (Week 10, 3 mg vs placebo, All Randomized (includes Duplicate Patients)): 0.708 | Non-Responders, n (%) (Week 10, 3 mg, All Randomized (includes Duplicate Patients)): 328 (69.8) n (%) | CSBM Weekly Responders, n (%) (Week 10, 3 mg, ITT Population): 137 (30.9) n (%) | Non-Responders, n (%) (Week 10, 3 mg, ITT Population): 306 (69.1) n (%) | CSBM Weekly Responders, n (%) [3]: 136 (31.3) n (%) | Non-Responders, n (%) [3]: 298 (68.7) n (%) | Difference in Proportions (adjusted) (Week 10, 6 mg minus placebo, All Randomized (includes Duplicate Patients)): 0.097 | Odds Ratio (adjusted) (Week 10, 6 mg vs placebo, All Randomized (includes Duplicate Patients)): 0.619 | Non-Responders, n (%) (Week 10, 6 mg, All Randomized (includes Duplicate Patients)): 315 (66.9) n (%) | CSBM Weekly Responders, n (%) (Week 10, 6 mg, ITT Population): 154 (34.3) n (%) | Non-Responders, n (%) (Week 10, 6 mg, ITT Population): 295 (65.7) n (%) | CSBM Weekly Responders, n (%) [4]: 153 (34.5) n (%) | Non-Responders, n (%) [4]: 290 (65.5) n (%) | Non-Responders, n (%) (Week 10, Active Combined, All Randomized (includes Duplicate Patients)): 643 (68.3) n (%) | Difference in Proportions (adjusted) (Week 10, 3 mg minus placebo, ITT Population-Excluding Duplicate Patients): 0.064 | Difference in Proportions (adjusted) (Week 10, 3 mg minus placebo, ITT Population): 0.062 | Odds Ratio (adjusted) (Week 10, 3 mg vs placebo, ITT Population-Excluding Duplicate Patients): 0.729 | Odds Ratio (adjusted) (Week 10, 3 mg vs placebo, ITT Population): 0.734 | Difference in Proportions (adjusted) (Week 10, 6 mg minus placebo, ITT Population-Excluding Duplicate Patients): 0.096 | Difference in Proportions (adjusted) (Week 10, 6 mg minus placebo, ITT Population): 0.096 | Odds Ratio (adjusted) (Week 10, 6 mg vs placebo, ITT Population-Excluding Duplicate Patients): 0.630 | Odds Ratio (adjusted) (Week 10, 6 mg vs placebo, ITT Population): 0.629 | CSBM Weekly Responders, n (%) [5]: 289 (33.0) n (%) | Non-Responders, n (%) [5]: 588 (67.0) n (%) | CSBM Weekly Responders, n (%) [6]: 291 (32.6) n (%) | Non-Responders, n (%) [6]: 601 (67.4) n (%) | Difference in Proportions (adjusted) (Week 11, 3 mg minus placebo, All Randomized (includes Duplicate Patients)): 0.089 | Odds Ratio (adjusted) (Week 11, 3 mg vs placebo, All Randomized (includes Duplicate Patients)): 0.643 | CSBM Weekly Responders, n (%) [7]: 153 (32.6) n (%) | Non-Responders, n (%) [7]: 317 (67.4) n (%) | CSBM Weekly Responders, n (%) (Week 11, 3 mg, ITT Population): 147 (33.2) n (%) | Non-Responders, n (%) (Week 11, 3 mg, ITT Population): 296 (66.8) n (%) | CSBM Weekly Responders, n (%) [8]: 147 (33.9) n (%) | Non-Responders, n (%) [8]: 287 (66.1) n (%) | Difference in Proportions (adjusted) (Week 11, 6 mg minus placebo, All Randomized (includes Duplicate Patients)): 0.082 | Odds Ratio (adjusted) (Week 11, 6 mg vs placebo, All Randomized (includes Duplicate Patients)): 0.664 | CSBM Weekly Responders, n (%) [9]: 150 (31.8) n (%) | Non-Responders, n (%) [9]: 321 (68.2) n (%) | CSBM Weekly Responders, n (%) (Week 11, 6 mg, ITT Population): 145 (32.3) n (%) | Non-Responders, n (%) (Week 11, 6 mg, ITT Population): 304 (67.7) n (%) | CSBM Weekly Responders, n (%) [10]: 144 (32.5) n (%) | Non-Responders, n (%) [10]: 299 (67.5) n (%) | CSBM Weekly Responders, n (%) [11]: 303 (32.2) n (%) | Non-Responders, n (%) [11]: 638 (67.8) n (%) | Difference in Proportions (adjusted) (Week 11, 3 mg minus placebo, ITT Population-Excluding Duplicate Patients): 0.089 | Difference in Proportions (adjusted) (Week 11, 3 mg minus placebo, ITT Population): 0.086 | Odds Ratio (adjusted) (Week 11, 3 mg vs placebo, ITT Population-Excluding Duplicate Patients): 0.649 | Odds Ratio (adjusted) (Week 11, 3 mg vs placebo, ITT Population): 0.654 | Difference in Proportions (adjusted) (Week 11, 6 mg minus placebo, ITT Population-Excluding Duplicate Patients): 0.076 | Difference in Proportions (adjusted) (Week 11, 6 mg minus placebo, ITT Population): 0.078 | Odds Ratio (adjusted) (Week 11, 6 mg vs placebo, ITT Population-Excluding Duplicate Patients): 0.690 | Odds Ratio (adjusted) (Week 11, 6 mg vs placebo, ITT Population): 0.68 | CSBM Weekly Responders, n (%) [12]: 291 (33.2) n (%) | Non-Responders, n (%) [12]: 586 (66.8) n (%) | CSBM Weekly Responders, n (%) [13]: 292 (32.7) n (%) | Non-Responders, n (%) [13]: 600 (67.3) n (%) | Difference in Proportions (adjusted) (Week 12, 3 mg minus placebo, All Randomized (includes Duplicate Patients)): 0.068 | Odds Ratio (adjusted) (Week 12, 3 mg vs placebo, All Randomized (includes Duplicate Patients)): 0.711 | CSBM Weekly Responders, n (%) [14]: 145 (30.9) n (%) | Non-Responders, n (%) [14]: 325 (69.1) n (%) | CSBM Weekly Responders, n (%) (Week 12, 3 mg, ITT Population): 140 (31.6) n (%) | Non-Responders, n (%) (Week 12, 3 mg, ITT Population): 303 (68.4) n (%) | CSBM Weekly Responders, n (%) [15]: 140 (32.3) n (%) | Non-Responders, n (%) [15]: 294 (67.7) n (%) | Difference in Proportions (adjusted) (Week 12, 6 mg minus placebo, All Randomized (includes Duplicate Patients)): 0.088 | Odds Ratio (adjusted) (Week 12, 6 mg vs placebo, All Randomized (includes Duplicate Patients)): 0.647 | CSBM Weekly Responders, n (%) [16]: 155 (32.9) n (%) | Non-Responders, n (%) [16]: 316 (67.1) n (%) | CSBM Weekly Responders, n (%) (Week 12, 6 mg, ITT Population): 151 (33.6) n (%) | Non-Responders, n (%) (Week 12, 6 mg, ITT Population): 298 (66.4) n (%) | CSBM Weekly Responders, n (%) [17]: 150 (33.9) n (%) | Non-Responders, n (%) [17]: 293 (66.1) n (%) | CSBM Weekly Responders, n (%) [18]: 300 (31.9) n (%) | Non-Responders, n (%) [18]: 641 (68.1) n (%) | Difference in Proportions (adjusted) (Week 12, 3 mg minus placebo, ITT Population-Excluding Duplicate Patients): 0.066 | Difference in Proportions (adjusted) (Week 12, 3 mg minus placebo, ITT Population): 0.062 | Odds Ratio (adjusted) (Week 12, 3 mg vs placebo, ITT Population-Excluding Duplicate Patients): 0.724 | Odds Ratio (adjusted) (Week 12, 3 mg vs placebo, ITT Population): 0.737 | Difference in Proportions (adjusted) (Week 12, 6 mg minus placebo, ITT Population-Excluding Duplicate Patients): 0.082 | Difference in Proportions (adjusted) (Week 12, 6 mg minus placebo, ITT Population): 0.082 | Odds Ratio (adjusted) (Week 12, 6 mg vs placebo, ITT Population-Excluding Duplicate Patients): 0.673 | Odds Ratio (adjusted) (Week 12, 6 mg vs placebo, ITT Population): 0.672 | CSBM Weekly Responders, n (%) [19]: 290 (33.1) n (%) | Non-Responders, n (%) [19]: 587 (66.9) n (%) | CSBM Weekly Responders, n (%) [20]: 291 (32.6) n (%) | Non-Responders, n (%) [20]: 601 (67.4) n (%)
